Test results as given in patent US20080182274A1, “MONITOR PROTEINS USABLE FOR ANALYZING EXPRESSION OF MEMBRANE PROTEINS” (National Institute of Advanced Industrial Science and …, priority 2007, published 2008).

System: monitor protein expressed on the cell membrane
Assay: Recovery of cell-membrane luminescence after Sulfo-NHS deactivation (intracellular transport of monitor protein)
Type: cell-based, Chinese hamster
Conditions: CHO-K1 cells expressing pCMV-DL-D3-CD8, 1 mM BFA, up to 6 hours after deactivation, FIG. 6
Description: The vector pCMV-DL-D3-CD8 prepared in Example 1 was introduced into an animal cell. Briefly, CHO-K1 cells were seeded on 6-well plates at 1=10^6 cells/well and cultured in D-MEM/Ham's F-12 medium (Wako Purechamical Industries) containing 10% FCS. After overnight culture at 37° C., 4 μg of pCMV-DL-D3-CD8 was added to each well and mixed with 250 μl of Opti-MEM serum-free medium (Gibco RRL) and reacted at room temperature for 5 min. Then, 10 μl of lipofectamine 2000 reacted in 250 μl of Opti-MEM serum-free medium at room temperature for 5 min was mixed with the cells to perform transfection in Opti-MEM serum-free medium. Then, the medium was exchanged for D-MEM/Ham's F-12 medium containing 10% FCS. […] Then, cells were counted, followed by preparation of a cell suspension with a cell density of 2×10^7 cells/ml.
By adding 0.5 mM Sulfo-NHS (Pierce) to the cell suspension, the monitor protein expressed on the cell membrane was inactivated. […] Cells were counted and arranged to give a density of 4×10^5 cells per 100 μl. […] To one aliquot, 2 μl of dinoflagellate-derived luciferin was added and the luminescence activity of the monitor protein expressed on the cell membrane was measured. Other aliquots were subjected to measurement of the amount of ATP-derived luminescence in order to examine whether the cell count is constant in individual samples taken at the above-indicated time points.

C[C@H]1CCC/C=C/[C@@H]2C[C@H](O)C[C@H]2[C@H](O)/C=C/C(=O)O1 [BFA, Brefeldin A]
luminescence derived from the membrane protein expressed on the cell membrane after deactivation treatment: luminescence was not recognized
